# Test results taken from US9737532B2, “Method of treating ischemia/reperfusion injury” (TOKYO UNIVERSITY OF SCIENCE FOUNDATION, priority 2011, dated 2017).
# Like-named read-outs stand apart in the source and are kept apart here. Where a SMILES comes first, the peptide text is derived from it. The star is where a group is joined. Cbz = O=C(OCc1ccccc1)*
# Experiments:
# [1] = system: Parp1 protein; test: Parp1 protein levels by Western blotting in mouse cells; type: cell-based; conditions: for Parp1 reduction, p53 dependency: MEFs from p53+/+ or −/− mice; for reduction in Parp1 protein: summary statement of the discussion; for basal Parp1 protein levels: MG132 alone, 5 μM
# Text: Mouse fibroblast cell line 3T3-L1, human lung cancer cell line A549, and human hepatoma cell line HepG2 were purchased from the RIKEN Bioresource Center (Japan). Mouse fibroblast cell line 3T3-F442A and human osteosarcoma cell line U2OS were purchased from the European Collection of Animal Cell Cultures (U.K.). p53 deficient mouse-derived fibroblast cell line HW (J. Med. Chem. (2010) 53, 4561-4584) was kindly provided by Dr. Masayuki Saito (Tenshi University, Japan). The cells were maintained in Dulbecco's modified Eagle's medium (low glucose) (WAKO, Japan) with 10% (3T3-L1, 3T3-F442A, HW, U2OS, and HepG2) or 5% (A549) fetal calf serum and 1% penicillin/streptomycin (SIGMA). Cpt and MG132 were purchased from WAKO (Japan).
# We designed a mouse p53 shRNA expression vector based on target sequences for effective p53 knockdown, as previously reported (J. Biol. Chem. (2003) 278, 11731-11734). Two oligonucleotides, 5′-gatcccc[…]ttcaagaga[…]ttttt ggaaa-3′ (SEQ ID NO:1) and 5′-agcttttccaaaaa[…]tctcttgaa[…] ACggg-3′ (SEQ ID NO:2) (upper case letters, target sequences against p53; lower case letters, BgIII, HindIII or loop structure sequences) were chemically synthesized (Operon Biotechnology, USA). The annealed oligos were directly ligated into a BgIII and HindIII-digested pSUPER-puro shRNA expression vector gifted from Dr. Shigeo Ohno (Yokohama City University, Japan) (Cell Sci. (2006) 119, 2107-2118). The produced vector, termed pSUPER-puro-shmp53, was transfected with Lipofectamine LTX (Invitrogen, USA) into 3T3-L1 cells, according to the manufacturer's protocol. For stable p53 knockdown cell lines, the transfected cells were selected with puromycin and resistant clones were isolated by trypsinization using cloning cylinders.
# p53 heterozygous mice (Accession Number, CDB 0001K) (Oncogene (1993) 8, 3313-3322) were purchased from RIKEN BRC (Saitama, Japan). p53 heterozygous males and females were crossed, and MEFs were prepared from the pregnant females. Each 13- to 15-day-old embryo was dissected from the uterus and washed with PBS. After removal of the head, tail, limbs, and blood-enriched organs, the trimmed embryo was washed with PBS and minced. After trypsinization at 37° C. for 10 min followed by inactivation of trypsin by addition of FCS, MEFs were separated by filtration through a cell-strainer. p53 status was confirmed by PCR using previously described primers (forward primer for p53 genomic sequence, 5′-[…]-3′ (SEQ ID NO:3); reverse primer for p53 genomic sequence, 5′-[…]-3′ (SEQ ID NO:4), forward primer for neo sequence, 5′-[…]-3′ (SEQ ID NO:5)) (Oncogene (1993) 8, 3313-3322), and the established MEFs were maintained in DMEM high glucose with 10% FCS, 2-mercaptoethanol (2-ME), and antibiotics.
# Cells were lyzed by the addition of lysis buffer (50 mM Tris-HCl pH6.8, 2% SDS, 5% glycerol), boiled for 5 min, and sonicated. Protein concentrations of the soluble fraction were determined by BCA protein assay (PIERCE, USA) according to the manufacturer's protocol, and standardized by the addition of lysis buffer. Following this, the proteins were added to 2-ME and bromophenol blue so as to obtain final concentrations of 5% and 0.025%, respectively, and boiled for 5 min. Equal amounts of proteins (5 to 20 μg) were subjected to SDS-PAGE and transferred to nitrocellulose membranes. The membranes were blocked with 2.5% skim milk and 0.25% BSA in TBS (50 mM Tris, pH 7.4, 150 mM NaCl) containing 0.1% Tween 20 (TTBS) for 1 h at room temperature, and then probed with appropriate primary antibodies overnight at 4° C. or for 2 h at room temperature. As primary antibodies, anti-Parp1 (clone C-2-10, WAKO, Japan), anti-p53 (clone Ab-1, Calbiochem, USA), anti-βactin (clone AC-15, SIGMA, USA), or anti-caspase-3 (clone 1F3, MBL, Japan) antibodies were used. […]
# [2] = system: p53; test: p53 protein stabilization by Western blotting in mouse fibroblast cells; type: cell-based; conditions: for p53 protein stabilization: 8 hours, FIG. 4A; for p53 stabilization: 24 hours, FIG. 1A; for p53 accumulation: summary statement of the discussion
# [3] = system: caspase-3; test: caspase-3 activation by Western blotting in mouse fibroblast cells; type: cell-based; conditions: 24 hours
# [4] = system: Parp1 protein; test: Parp1 protein levels by Western blotting in human cell lines; type: cell-based
# [5] = system: Parp1 mRNA; test: Parp1 mRNA by RT-PCR; type: cell-based, mouse; conditions: 24 hours, FIG. 3A
# Protocol: Cells were lyzed by RNAiso PLUS (TaKaRa, Japan), and then total RNA was purified using a FastPure RNA kit (TaKaRa, Japan) according to manufacturer's protocol. […] RNA was subjected to reverse transcription with PrimeScript Reverse Transcriptase (TaKaRa, Japan) and random hexamer (TaKaRa, Japan). The PCR reaction was performed using Platinum Taq DNA Polymerase High Fidelity (Invitrogen, USA) and Parp1 (forward, 5′-[…]-3′ (SEQ ID NO:6); reverse, 5′-[…]-3′ (SEQ ID NO:7)) or β-actin primers (forward, 5′-[…]-3′ (SEQ ID NO:8); reverse, 5′-[…]-3′ (SEQ ID NO:9)) as follows: initiation step, at 94° C. for 1 min; amplification step, 30 (Parp1) or 25 (β-actin) cycles of at 94° C. for 1 min, at 52° C. (Parp1) or 61° C. (β-actin) for 15 sec, at 68° C. for 15 sec; termination step, 68° C. 15 sec. PCR products were subjected to 1.8% agarose gel electrophoresis, stained with ethidium bromide, and visualized with LAS3000. The data was analyzed using MultiGauge software (FUJI FILM, Japan).
# [6] = system: 3T3-L1 cells
# [7] = system: Parp1; conditions: cited from earlier work
# [8] = 3T3-F442A cells, 8 hours, FIGS. 4A and 4B
# [9] = 3T3-L1 cells, 8 hours, FIGS. 4A and 4B
# [10] = 3T3-F442A cells, 24 hours, FIGS. 1A and 1B
# [11] = 3T3-L1 cells, 24 hours, FIGS. 1A and 1B
structure (smiles),measurement,setting,value
COc1ccc(C2=N[C@H](c3ccc(C(F)(F)F)cc3)[C@H](c3ccc(C(F)(F)F)cc3)N2C(=O)N2CCNC(=O)C2)c(OC(C)C)c1 [Caylin2],Parp1 cleavage / Parp1 protein,"[1]; 20 μM Caylin2, 8 hours",induced Parp1 protein decrease without any trace of its apoptotic cleavage
same,Parp1 cleavage / Parp1 protein,"[1]; 100 μM Caylin2, 8 hours",induced Parp1 cleavage
same,Parp1 protein levels,[1]; [8],markedly decreased the Parp1 protein levels
same,Parp1 protein levels,[1]; [9],markedly decreased the Parp1 protein levels
same,"Parp1 reduction, p53 dependency","[1]; 8 hours, FIGS. 5A and 5B",reduces the Parp1 protein levels in a p53-dependent manner
same,p53 protein stabilization,[2]; 3T3-F442A cells,induced p53 protein stabilization
same,p53 protein stabilization,[2]; 3T3-L1 cells,induced p53 protein stabilization
"CC[C@@]1(O)C(=O)OCc2c1cc1n(c2=O)Cc2cc3ccccc3nc2-1 [Cpt, camptothecin]",Parp1 protein levels,[1]; [10],did not alter the Parp1 protein levels
same,Parp1 protein levels,[1]; [11],did not alter the Parp1 protein levels
same,reduction in Parp1 protein,[1],did not evoke a significant reduction in Parp1 protein
same,p53 stabilization,[2]; 3T3-F442A cells,induced p53 stabilization
same,p53 stabilization,[2]; 3T3-L1 cells,induced p53 stabilization
same,p53 accumulation,[2],induced p53 accumulation
same,caspase-3 activation,[3]; 3T3-F442A cells,no caspase-3 activation
same,caspase-3 activation,[3]; 3T3-L1 cells,no caspase-3 activation
CC(C)C[C@@H](C=O)NC(=O)[C@H](CC(C)C)NC(=O)[C@H](CC(C)C)NC(=O)OCc1ccccc1 [MG132] (Cbz-Leu-Leu-Leu-aldehyde),effect on Caylin2-induced reduction in Parp1,"[1]; 5 μM MG132 with 20 μM Caylin2, 8 hours, 3T3-L1 cells, FIG. 6B",clearly inhibited the Caylin2-induced reduction in Parp1
same,effect on Nutlin3a-induced reduction in Parp1,"[1]; 5 μM MG132 with 25 μM Nutlin3a, 8 hours, 3T3-L1 and 3T3-F442A cells, FIG. 3B",clearly inhibited the Nutlin3a-induced reduction in Parp1
same,basal Parp1 protein levels,"[1]; 8 hours, 3T3-L1 and 3T3-F442A cells, FIG. 3B",did not affect basal Parp1 protein levels
same,basal Parp1 protein levels,"[1]; 8 hours, 3T3-L1 cells, FIG. 6B",did not affect basal Parp1 protein levels
same,reduction in Parp1 protein,[1],did not evoke a significant reduction in Parp1 protein
same,p53 accumulation,[2],induced p53 accumulation
COc1ccc(C2=N[C@@H](c3ccc(Cl)cc3)[C@@H](c3ccc(Cl)cc3)N2C(=O)N2CCNC(=O)C2)c(OC(C)C)c1 [Nutlin3a],Parp1 protein levels,[1]; [8],markedly decreased the Parp1 protein levels
same,Parp1 protein levels,[1]; [10],markedly decreased it
same,decrease in Parp1,"[1]; 3T3-L1/shp53 cells (p53 stable knockdown), FIG. 2B",diminished significantly
same,decrease in Parp1,"[1]; 3T3-L1 cells with shRNA-mediated transient knockdown of p53, FIG. 2A",attenuated the decrease in Parp1
same,Parp1 protein levels,[1]; [9],markedly decreased the Parp1 protein levels
same,Parp1 protein levels,[1]; [11],markedly decreased it
same,"Parp1 protein, time course","[1]; 3T3-L1 or 3T3-F442A cells, 25 μM for 8 h, FIG. 1C",Parp1 protein diminished
same,decrease in Parp1,"[1]; HW cells (p53 deficient), FIG. 2B",diminished significantly
same,"Parp1 reduction, p53 dependency","[1]; 24 hours, FIG. 2C",reduces the Parp1 protein levels in a p53-dependent manner
same,levels of full length of Parp1 protein,"[1]; Nutlin3a-treated 3T3-L1, first observation",significant reduction in the levels of full length of Parp1 protein without cleavage into p85 and p25 apoptotic fragments
same,Nutlin3a-induced Parp1 decrease,"[4]; A549 cells, 24 h, FIG. 1D",detected the Nutlin3a-induced Parp1 decrease in only A549 cells
same,reduction in Parp1 protein,"[4]; HCT116 cells, various doses of Nutlin3a, data not shown",no significant reduction in Parp1 protein other than apoptotic cleavage
same,caspase-3 activation,[3]; 3T3-F442A cells,no caspase-3 activation
same,caspase-3 activation,[3]; 3T3-L1 cells,no caspase-3 activation
same,Parp1 mRNA,[5]; p53 deficient cell lines (3T3-L1/shp53 and HW),did not change
same,Parp1 mRNA,[5]; p53 proficient cell lines (3T3-L1 and 3T3-F442A),did not change
same,cell viability (trypan blue exclusion),[6],the cells were viable
same,cleavage of Parp1,[7]; human colon cancer cell line HCT116,induces cleavage of Parp1 into two apoptotic fragments
same,cleavage of Parp1,[7]; human myeloid leukemia cell line ML-1,induces cleavage of Parp1 into two apoptotic fragments
N.N.[Cl][Pt][Cl] [cisplatin],Parp1 protein levels,"[1]; cisplatin treatment, data not shown",did not affect Parp1 protein levels
same,reduction in Parp1 protein,[1],did not evoke a significant reduction in Parp1 protein
same,p53 accumulation,[2],induced p53 accumulation
